Data from patent publication US7358390B2, “Polymorphic forms of nateglinide” (Teva Pharmaceutical Industries Ltd., priority 2002, dated 2008).
“Also recorded” adds a separate entry of the source. One block for each compound: values may come before it.

Legend:
[1] = Storage of crystalline forms at room temperature, form checked by XRPD; assay type: physicochemical; settings: for crystal form after storage at RT: room temperature and pressure, open bottle, 24 h (about a day)
Method: The various crystalline forms are also analyzed by Thermal Gravimetric Analysis (TGA). […] In contrast to the above listed forms, TGA profiles of forms L, P, U, α, δ and σ show no significant weight loss. These polymorphic forms of nateglinide are free of bound solvents, i.e., less than about 2% LOD. Table III lists the solvents used for the preparation for nateglinide solvated forms, as well as LOD values based on TGA analysis.
Storage at room temperature and pressure may also cause a transition of one form to another.
(§1) X-Ray diffraction was performed on X-Ray powder diffractometer, Scintag®, variable goniometer, Cu-tube, solid state detector. Sample holder: A round standard aluminum sample holder with round zero background quartz plate.
(§2) The sample was put on the sample holder and immediately analyzed as is. • Scanning parameters: Range: 2-40 deg 2θ, Continuos Scan, Rate: 3 deg./min. DSC: • DSC821^e Mettler Toledo®, Sample weight: 3-5 mg, Heating rate: 10° C./min, Number of holes in the crucible: 3 TGA: • Mettler TG50®, Sample weight: 7-15 mg, Heating rate: 10° C./min FTIR: • Perkin-Elmer®, Spectrum One FTIR spectrometer, Range: 4000-400 cm−1, no. of scans: 16, resolution: 4.0 cm−1, DRIFT technique.

[2] = Thermal stability: transformation of crystalline forms on heating or drying, form checked by XRPD; assay type: physicochemical; settings: for crystal form obtained upon drying/heating: heating under ambient or reduced pressure, generally about 40-80° C.
Method: The various crystalline forms are related to each other in that drying of one form may result in a transformation to another form, namely nateglinide Forms A, B, D, E, F, G, H, I, J, K, L, M, N, Q, S, T, V, Z, α, β, δ, γ, ε, θ and Ω. The drying is carried out by heating a sample under ambient or reduced pressure. Generally, a preferred temperature is from about 40° C. to about 80° C., more preferably under reduced pressure. […] The term “stable” as used herein refers to a polymorphic change of less than about 5% by weight, more preferably less than about 2%, particularly for Form δ.
as §1, §2
Nateglinide Form delta (10 grams), with about 3% heptane (wt/wt), was dried in a fluidized bed drier for 4 hours at 60° C. Residual heptane was 1578 ppm af. Ethyl acetate is under detection limit. Polymorphic form of the dry product is delta.
Sample of nateglinide form U (˜1 g) was introduced into a 6-gram vial and heated over 8.5 h in a 100° C. oil bath. The vial were extracted from the bath.
Sample of nateglinide form U (˜0.5 g) was heated to 120° C. for 1 h in an atmospheric pressure.
Sample of nateglinide form δ (˜0.5 g) was heated to 120° C. for 1 h in an atmospheric pressure.
The product of example 11 was dried at 50° C. in a vacuum oven overnight, and analyzed by XRD.
Nateglinide (40 grams) Form delta (1.5% heptane) was dried in a stirred reactor (7-10 rpm) under 60 mmHg vacuum and at 60° C. After 6 hours of drying, the residual solvent of the material was 613 ppm of heptane.

[3] = Stability at about 40° C. and about 75% relative humidity; assay type: physicochemical; settings: about 40° C., about 75% relative humidity, at least about 3 months
Method: Crystalline Form δ is stable at a temperature of about 40° C. and a relative humidity of about 75% for at least about 3 months.

[4] = Exposure of NTG Form H to solvent vapors; assay type: physicochemical; settings: 4 d, room temperature
Method: Nateglinide (3.50 g) was added to a polypropylene can and weighed. The can was introduced into a bigger polypropylene container containing a solvent, and stored at room temperature. The can was removed from the container and weighed (Wfinal). The can content was divided into 2 portions. One portion was dried at a temperature of 55° C. and a pressure of 20-30 mmHg to constant weight (±0.01 g).

[5] = second endotherm at 138.2° C. after grinding; cited from earlier work
[6] = 120° C., 1 h, atmospheric pressure

crystal form obtained upon drying/heating [2]: convert to Form B
Structure (SMILES): CC(C)[C@H]1CC[C@H](C(=O)N[C@H](Cc2ccccc2)C(=O)O)CC1 [Form θ, nateglinide]

crystal form obtained upon drying/heating [2]: Forms H or P
Structure (SMILES): CC(C)[C@H]1CC[C@H](C(=O)N[C@H](Cc2ccccc2)C(=O)O)CC1 [nitromethane solvates of Form Epsilon, nateglinide]

crystal form after storage at RT [1]: converts to Form E
crystal form after storage at RT ([1]; listed as T): Form E
Structure (SMILES): CC(C)[C@H]1CC[C@H](C(=O)N[C@H](Cc2ccccc2)C(=O)O)CC1 [Form T, nateglinide]
crystal form obtained upon drying/heating [2]: convert to Form B; also recorded: a mixture of Form B and G

crystal form obtained upon drying/heating [2]: convert to Form B
Structure (SMILES): CC(C)[C@H]1CC[C@H](C(=O)N[C@H](Cc2ccccc2)C(=O)O)CC1 [Form G, nateglinide]

crystal form obtained upon drying/heating [2]: convert to Form B
crystal form after storage at RT [1]: partially converts to Form B
crystal form after storage at RT ([1]; listed as A): conversion to Form B
Structure (SMILES): CC(C)[C@H]1CC[C@H](C(=O)N[C@H](Cc2ccccc2)C(=O)O)CC1 [Form A, nateglinide]

crystal form obtained upon drying/heating [2]: Form L
Structure (SMILES): CC(C)[C@H]1CC[C@H](C(=O)N[C@H](Cc2ccccc2)C(=O)O)CC1 [Form N, nateglinide]

crystal form obtained upon drying/heating [2]: convert to Form B
Structure (SMILES): CC(C)[C@H]1CC[C@H](C(=O)N[C@H](Cc2ccccc2)C(=O)O)CC1 [Form Z, nateglinide]

crystal form obtained upon drying/heating [2]: Form B
Structure (SMILES): CC(C)[C@H]1CC[C@H](C(=O)N[C@H](Cc2ccccc2)C(=O)O)CC1 [acetonitrile solvate of Form Epsilon, nateglinide]

crystal form obtained upon drying/heating [2]: convert to Form B
Structure (SMILES): CC(C)[C@H]1CC[C@H](C(=O)N[C@H](Cc2ccccc2)C(=O)O)CC1 [Form β, nateglinide]

crystal form after heating (XRPD) [2, 6]: Form U
crystal form after heating (XRPD) ([2]; about 100° C. oil bath, 8.5 h): does not undergo a transition
crystal form after heating (XRPD) ([2]; about 100° C. oil bath, 8.5 h, listed as form U): Form U
Structure (SMILES): CC(C)[C@H]1CC[C@H](C(=O)N[C@H](Cc2ccccc2)C(=O)O)CC1 [Form U, nateglinide]

crystal form obtained upon drying/heating [2]: Form H
Structure (SMILES): CC(C)[C@H]1CC[C@H](C(=O)N[C@H](Cc2ccccc2)C(=O)O)CC1 [Form V, nateglinide]

Further lines, the compound ahead of its results:

Structure (SMILES): CC(C)[C@H]1CC[C@H](C(=O)N[C@H](Cc2ccccc2)C(=O)O)CC1 [Form I, nateglinide]
crystal form after storage at RT [1]: converts to Form L
crystal form after storage at RT ([1]; listed as I): Form L

Structure (SMILES): CC(C)[C@H]1CC[C@H](C(=O)N[C@H](Cc2ccccc2)C(=O)O)CC1 [Form F, nateglinide]
crystal form obtained upon drying/heating [2]: convert to Form B; also recorded: a mixture of Form B and G

Structure (SMILES): CC(C)[C@H]1CC[C@H](C(=O)N[C@H](Cc2ccccc2)C(=O)O)CC1 [Form Q, nateglinide]
crystal form obtained upon drying/heating [2]: convert to Form B
crystal form after storage at RT [1]: converts to Form Y
crystal form after storage at RT ([1]; listed as Q): Form Y, which contains

Structure (SMILES): CC(C)[C@H]1CC[C@H](C(=O)N[C@H](Cc2ccccc2)C(=O)O)CC1 [Form ε, nateglinide]
crystal form obtained upon drying/heating [2]: Form H

Structure (SMILES): CC(C)[C@H]1CC[C@H](C(=O)N[C@H](Cc2ccccc2)C(=O)O)CC1 [Form C, nateglinide]
crystal form obtained upon drying/heating [2]: convert to Form B; also recorded: Form B or α

Structure (SMILES): CC(C)[C@H]1CC[C@H](C(=O)N[C@H](Cc2ccccc2)C(=O)O)CC1 [Form E, nateglinide]
crystal form obtained upon drying/heating [2]: convert to Form B

Structure (SMILES): CC(C)[C@H]1CC[C@H](C(=O)N[C@H](Cc2ccccc2)C(=O)O)CC1 [Form Ω, nateglinide]
crystal form after drying (XRD) ([2]; 50° C., vacuum oven, overnight): mixture of Form omega and Form Z
crystal form obtained upon drying/heating [2]: convert to Form B

Structure (SMILES): CC(C)[C@H]1CC[C@H](C(=O)N[C@H](Cc2ccccc2)C(=O)O)CC1 [Form M, nateglinide]
crystal form obtained upon drying/heating [2]: Form L

Structure (SMILES): CC(C)[C@H]1CC[C@H](C(=O)N[C@H](Cc2ccccc2)C(=O)O)CC1 [Form δ, nateglinide]
stability when heated ([2]; 60° C. overnight (at least about 8 hours)): stable
crystal form after heating (XRPD) [2, 6]: Form B
crystal form after heating (XRPD) ([2]; 120° C., 1 h, atmospheric pressure, listed as form δ): Form B
polymorphic form after drying ([2]; fluidized bed drier, 4 hours, 60° C.): delta
crystal form obtained upon drying/heating [2]: convert to Form B
polymorph after drying ([2]; stirred reactor (7-10 rpm), 60 mmHg vacuum, 60° C., 6 hours): remained delta form
stability on storage [3]: stable

Structure (SMILES): CC(C)[C@H]1CC[C@H](C(=O)N[C@H](Cc2ccccc2)C(=O)O)CC1 [Form H, nateglinide]
Form wet after exposure to solvent vapors ([4]; Acetone vapors): stable
Form wet after exposure to solvent vapors ([4]; Water vapors): stable

Structure (SMILES): CC(C)[C@H]1CC[C@H](C(=O)N[C@H](Cc2ccccc2)C(=O)O)CC1 [Form J, nateglinide]
crystal form obtained upon drying/heating [2]: convert to Form B; also recorded: Form B or β
XRD pattern after storage at RT ([1]; RT, overnight): changed after storage at RT

Structure (SMILES): CC(C)[C@H]1CC[C@H](C(=O)N[C@H](Cc2ccccc2)C(=O)O)CC1 [Form B, nateglinide]
stability during grinding (DSC) [5]: unstable and susceptible to change
